Assay results as given in a melting point compilation (Tetko et al.).

| Structure (SMILES) | melting point |
| --- | --- |
| COc1ccccc1-c1c[nH]cc1C(=O)O | 195 to 197 °C |
| Cc1oc2cc(O)ccc2c(=O)c1Oc1ccccc1 | 235 to 237 °C |
| O=C1CC2CCCN2c2ccccc2N1 (stereo not drawn) | 139 to 141 °C |
| CCC(C(=O)O)c1cccc(C(F)(F)F)c1 (stereo not drawn) | 41 to 43 °C |
| O=C1NCc2ccc(F)cc21 | 203 to 205 °C |
| CN(C)S(=O)(=O)c1ccc(I)c(C(=O)O)c1 | 198 to 200 °C |
| OCC1(NCc2ccccc2)CCC1 | 51 to 53 °C |
| Nc1ncn(-c2ccccn2)n1 | 174 to 176 °C |
| Nc1n[nH]c(=O)[nH]c1=O | 334 to 336 °C |
| O=C(O)Cc1n[nH]c2ccccc12 | 167 to 169 °C |
| NC(=O)CNCCC1CCCCC1 | 111 to 113 °C |
| Nc1sc2c(c1-c1nc3ccccc3s1)CCCC2 | 100 to 104 °C |
| CCOC(=O)c1cnc2c(C)cc(Br)cc2c1Cl | 101 to 103 °C |
| NC(=S)Nc1ccccc1OC(F)(F)F | 156 to 158 °C |
| O=C1C=C(c2ccccc2)CCC1 | 63 to 65 °C |
| CC(C)C(C(=O)O)n1cncn1 (stereo not drawn) | 177 to 179 °C |
| COCc1c(C(=O)O)oc2ccccc12 | 119 to 121 °C |
| CCOC(=O)c1c(N)sc2c1CCCS2=O (stereo not drawn) | 189 to 191 °C |
| O=C(CN1CCNCC1)NC1CC1 | 22 to 24 °C |
| O=Cc1cc(CCl)ccc1O | 87 to 89 °C |
| CCOC(=O)/C(C#N)=C/Nc1ccc(F)cc1F | 142 to 144 °C |
| Cc1ccc(C(=O)COc2ccc(C=O)cc2)cc1C | 65 to 67 °C |
| O=C(O)c1ccc(S(=O)(=O)Cl)s1 | 119 to 121 °C |
| CCn1ccnc(N)c1=O | 119 to 121 °C |

| Structure (SMILES) | melting point |
| --- | --- |
| Cc1sc2nc(CN3CCOCC3)nc(Cl)c2c1C | 102 to 104 °C |
| O=C(O)Cn1cn[nH]c1=O | 217 to 219 °C |
| NC(=S)C1CN(Cc2ccccc2)CCO1 (stereo not drawn) | 90 to 92 °C |
| CC(C)(C)C1CCc2[nH]c(=O)sc2C1 (stereo not drawn) | 205 to 207 °C |
| NC(=O)C1CCCC(N)C1 (stereo not drawn) | 132 to 134 °C |
| NC(=O)c1ccsc1N | 160 to 162 °C |
| O=C(CCl)N(Cc1ccccc1)c1ccccc1 | 79 to 81 °C |
| NS(=O)(=O)c1ccc(C(=O)O)nc1 | 194 to 196 °C |
| Cc1cc(=O)oc2ccc(OCC(=O)O)cc12 | 153 to 155 °C |
| CC(=O)c1c(C)oc2nc(Br)nn12 | 118 to 120 °C |
| Nc1nc2ncccn2n1 | 185 to 187 °C |
| N#Cc1ccc(CC(N)=O)cc1 | 191 to 193 °C |
| Nc1ccc2c(c1)C(=O)NS2(=O)=O | 286 to 288 °C |
| Cc1cccc(CSCC(=O)O)c1 | 74 to 76 °C |
| O=C(O)CCc1ccc(O)c(Cl)c1 | 84 to 86 °C |
| Cn1ccnc(NN)c1=O | 131 to 133 °C |
| Cc1cc(C(=O)O)c(C)n1-c1cccnc1 | 192 to 194 °C |
| Cc1cc(OCC(=O)O)ccc1C(C)C | 117 to 121 °C |
| CN(C)CCOc1ccc(C(N)=S)cc1 | 142 to 144 °C |
| O=C(Nc1nncs1)C1CCCNC1 (stereo not drawn) | 186 to 188 °C |
| C=CCc1cc(C(=O)OC)cc(OC)c1O | 76 to 78 °C |
| CC(C)(C)OC(=O)NNC(=O)C(F)(F)F | 119 to 121 °C |
| Cc1ccc(C(=O)O)cc1NC(=O)c1ccco1 | 230 to 232 °C |
| O=C(Nc1cccc(Cl)c1N1CCOCC1)OCC(F)(F)F | 74 to 76 °C |

| Structure (SMILES) | melting point |
| --- | --- |
| O=C(O)C=Cc1ccc([N+](=O)[O-])o1 | 230 to 232 °C |
| COCCOc1ccc(C(=O)O)cn1 | 134 to 136 °C |
| O=C(O)C1CSCCS1 (stereo not drawn) | 58 to 60 °C |
| COC(=O)c1ccc(CBr)s1 | 36 to 38 °C |
| NC(=O)c1ccc(OCC(=O)O)cc1 | 264 to 266 °C |
| CCOC(=O)c1ccc(C(C)=O)cc1 | 55 to 57 °C |
| Nc1ccc(C(=O)N2CCCCC2)c(Cl)c1 | 148 to 150 °C |
| CC1CCc2sc(C(=O)O)cc2C1 (stereo not drawn) | 132 to 136 °C |
| NS(=O)(=O)Cc1ccccc1[N+](=O)[O-] | 131 to 133 °C |
| CC(C)(C)OC(=O)Nc1ccc(CC(=O)O)cc1 | 153 to 155 °C |
| COC(=O)c1sc(N2CCOCC2)nc1N | 156 to 158 °C |
| Cc1c(Cl)nn2c(C(F)(F)F)nnc2c1C | 93 to 95 °C |
| O=C1CCS(=O)(=O)c2c(F)cccc21 | 181 to 183 °C |
| Cc1cc(NC(=O)Nc2cc(C)nn2C)n(C)n1 | 209 to 211 °C |
| O=[N+]([O-])c1ccc(N2CCNCC2)nc1 | 128 to 130 °C |
| O=C(O)c1ccc(Cl)c(S(=O)(=O)NCC2CCCO2)c1 (stereo not drawn) | 207 to 209 °C |
| CCOC(=O)c1ccc(-c2ccc(C=O)o2)cc1 | 110 to 112 °C |
| CC1CN(C(=O)OC(C)(C)C)CC(C)N1 (stereo not drawn) | 64 to 66 °C |
| NC(=O)c1csc(N)n1 | 196 to 198 °C |
| Cc1ccc(CN(C)C(N)=O)cc1 | 146 to 148 °C |
| COc1ccc(NC(=O)OC(C)(C)C)c(N)c1 | 116 to 118 °C |
| Cc1cccc(-n2nc(C(=O)O)cc2-c2ccc(-c3ccccc3)cc2)c1 | 215 to 217 °C |
| COC(=O)C(=O)CC(=O)c1ccc(Cl)s1 | 103 to 105 °C |
| Cc1ccc(C(N)=O)n1C | 152 to 154 °C |

Other lines, results leading:

| melting point | Structure (SMILES) |
| --- | --- |
| 177 to 179 °C | NC(=O)c1ccn(-c2cccc(N)c2)n1 |
| 131 to 133 °C | CN1CC(=O)N(c2cccc(N)c2)C1=O |
| 225 to 227 °C | S=c1[nH][nH]c(=Nc2cccc(Br)c2)s1 |
| 103 to 105 °C | N#Cc1cnc2ccc(OC(F)F)cc2c1Cl |
| 168 to 170 °C | Cc1ccc(N2C(=O)CSC2=S)cc1 |
| 101 to 103 °C | OCc1ncc(-c2cccc(Cl)c2)o1 |
| 258 to 260 °C | O=c1[nH]c2ccccc2nc1NO |
| 294 to 296 °C | O=C(O)c1c2c(nc3ccccc13)C(=Cc1cccc(Cl)c1Cl)CCC2 |
| 72 to 74 °C | NCc1ccc(-n2cnc3ccccc32)cc1 |
| 182 to 184 °C | O=c1ccc(S(=O)(=O)c2ccccc2)n[nH]1 |
| 199 to 201 °C | O=C(O)c1nn(Cc2ccccc2)c(=O)c2ccccc12 |
| 203 to 205 °C | Nn1c(S)nnc1Cc1ccc(F)cc1 |
| 112 to 114 °C | Clc1ccc2cccc(Br)c2n1 |
| 79 to 81 °C | CCc1cc(Cl)nc(-c2ccccn2)n1 |
| 161 to 163 °C | NS(=O)(=O)c1ccccc1I |
| 126 to 128 °C | Brc1cnn(-c2cccnc2)c1 |

| melting point | Structure (SMILES) |
| --- | --- |
| 178 to 180 °C | CC1(c2cccc([N+](=O)[O-])c2)NC(=O)NC1=O (stereo not drawn) |
| 109 to 111 °C | Cc1ccc(C(=O)Nc2cccc(C(F)(F)F)c2)cc1N |
| 143 to 145 °C | Nc1cc(Br)ccc1[N+](=O)[O-] |
| 149 to 151 °C | O=C(O)CCSc1nc2ccccc2s1 |
| 249 to 251 °C | Cc1ccc(O)c(C(=O)Nc2ccncc2)c1 |
| 180 to 182 °C | Brc1ccc(-n2cnnn2)cc1 |
| 94 to 96 °C | COc1cccc(-c2cc(N)n(C)n2)c1 |
| 69 to 71 °C | O=Cc1c(Cl)cccc1N1CCCC1 |
| 182 to 186 °C | Cc1cccc(C(=O)Nc2ccccc2C(=O)O)c1 |
| 30 to 34 °C | CNCc1nc2ccccc2s1 |
| 98 to 100 °C | Nc1cccc(S(=O)(=O)Nc2cccc(C(F)(F)F)c2)c1 |
| 90 to 92 °C | O=C(O)CCCCc1ccc(Br)cc1 |
| 214 to 216 °C | O=C(O)c1ccc(-c2ncon2)cc1 |
| 132 to 134 °C | N#Cc1ccc(-c2nc(CCl)co2)cc1 |
| 155 to 157 °C | COc1ccc(Cl)cc1NS(=O)(=O)c1cccc(C(=O)O)c1 |
